Active and inactive are the calls of the source. The calls are words filed in the database; no cut-off is given here.
What was measured:
Assay type in all cases: functional
[1] = Antioxidant activity assessed as reduction in AAPH-induced DNA oxidation up to 400 uM measured every 2 hrs by TBARS assay
[2] = Antioxidant activity assessed as reduction in hydroxyl radical-induced DNA oxidation by measuring TBARS level at 400 uM after 90 mins relative to control; parameters: scale not given: the % may be the effect or the level left
[3] = Antioxidant activity assessed as reduction in Cu2+/GSH-induced DNA oxidation by measuring TBARS level at 400 uM after 90 mins relative to control; parameters: scale not given: the % may be the effect or the level left

Structure (SMILES) | Activity [1] | Activity [2] [%] | Activity [3] [%]
O=C(O)c1cc(O)c(O)c(O)c1 | Active | – | –
COc1cc(/C=C/C(=O)O)ccc1O | Active | – | –
O=C(CN(C(=O)c1cc(O)c(O)c(O)c1)c1ccccc1)NC1CCCCC1 | Active | 97.1 | 97.1
O=C(CN(C(=O)c1ccccc1)c1ccccc1)N[C@@H]1[C@@H](O)[C@H](O)[C@@H](CO)O[C@H]1O | inactive | 100 | 99.3
O=C(CN(C(=O)c1ccc(O)cc1)c1ccc(O)cc1)N[C@@H]1[C@@H](O)[C@H](O)[C@@H](CO)O[C@H]1O | Active | 94.9 | 95
COc1cc(/C=C/C(=O)N(CC(=O)N[C@@H]2[C@@H](O)[C@H](O)[C@@H](CO)O[C@H]2O)Cc2ccccc2)ccc1O | Active | 94.7 | 92.8
O=C(CN(Cc1ccccc1)C(=O)/C=C/c1ccc(O)c(O)c1)N[C@@H]1[C@@H](O)[C@H](O)[C@@H](CO)O[C@H]1O | Active | 93.7 | 94.6
O=C(CN(C(=O)c1cc(O)c(O)c(O)c1)c1ccc(O)cc1)N[C@@H]1[C@@H](O)[C@H](O)[C@@H](CO)O[C@H]1O | Active | 91.8 | 91
O=C(CN(C(=O)c1ccccc1)c1ccc(O)cc1)N[C@@H]1[C@@H](O)[C@H](O)[C@@H](CO)O[C@H]1O | Active | 98.3 | 96.7
O=C(O)c1ccc(O)cc1 | Active | – | –
O=C(CN(C(=O)c1ccc(O)cc1)c1ccccc1)N[C@@H]1[C@@H](O)[C@H](O)[C@@H](CO)O[C@H]1O | Active | 96.5 | 97.8
O=C(CN(C(=O)c1cc(O)c(O)c(O)c1)c1ccccc1)N[C@@H]1[C@@H](O)[C@H](O)[C@@H](CO)O[C@H]1O | Active | 92.7 | 90.1
O=C(O)/C=C/c1ccc(O)c(O)c1 | Active | – | –
O=C(CN(C(=O)c1cc(O)c(O)c(O)c1)c1ccccc1)NCCc1c[nH]c2ccccc12 | Active | 93.8 | 96.2
O=C(CN(C(=O)c1cc(O)c(O)c(O)c1)c1ccccc1)NC12CC3CC(CC(C3)C1)C2 | Active | 95.6 | 93.6
